The text below walks through data of ChEMBL document CHEMBL5512632, “Unlocking the potential of 1,4-naphthoquinones: A comprehensive review of their anticancer properties” (Eur J Med Chem, 2024).

The test system of one test is THP-1. Kind of test: Antiproliferative activity against human THP-1 cells assessed as inhibition of cell growth. The format is functional, cell-based.
The subject of a further test is K562. In words: Antiproliferative activity against human K562 cells assessed as inhibition of cell growth. The format is functional, cell-based.
In a further test the test system is MV4-11. In words: Cytotoxicity against human MV4-11 cells. It counts as functional, cell-based.
Test [1] deals with HCT-15. In words: Antiproliferative activity against human HCT-15 cells assessed as inhibition of cell growth incubated for 24 hrs by MTT assay. The format is functional, cell-based. The following applies: HCT-15, 24 h.
In test [2] the test system is MCF7. In words: Antiproliferative activity against human MCF7 cells assessed as inhibition of cell growth incubated for 24 hrs by MTT assay. The format is functional, cell-based. To be noted: MCF7, 24 h. On the technique in general: Formazan colour is commonly taken as a measure of viable cells.
The test system of the next test is LNCaP. Kind of test: Antiproliferative activity against human LNCaP cells assessed as inhibition of cell growth incubated for 72 hrs by MTT assay. The format is functional, cell-based.
The subject of another test is PC-3. In words: Antiproliferative activity against human PC-3 cells assessed as inhibition of cell growth incubated for 72 hrs by MTT assay. It counts as functional, cell-based. The following applies: PC-3, 72 h.
For another test, the system named is SGC-7901. In words: Antiproliferative activity against human SGC-7901 cells assessed as inhibition of cell growth incubated for 48 hrs by MTT assay. The format is functional, cell-based. The following applies: SGC-7901, 48 h.
In a further test the test system is HepG2. Kind of test: Antiproliferative activity against human HepG2 cells assessed as inhibition of cell growth incubated for 48 hrs by MTT assay. The following applies: HepG2, 48 h. The format is functional, cell-based.
Test [3] has as its system MCF7. In words: Antiproliferative activity against human MCF7 cells. It counts as functional, cell-based.
For a further test, the system named is NCI-H187. Kind of test: Antiproliferative activity against human NCI-H187 cells. The format is functional, cell-based.
The test system of test [4] is HCT-15. Kind of test: Cytotoxicity against human HCT-15 cells incubated for 48 hrs by MTT assay. It counts as functional, cell-based. The following applies: HCT-15, 48 h.
Another test concerns HCT-116. In words: Cytotoxicity against human HCT-116 cells incubated for 48 hrs by MTT assay. It counts as functional, cell-based. To be noted: HCT-116, 48 h.
The subject of test [5] is AGS. Kind of test: Antiproliferative activity against human AGS cells assessed as inhibition of cell growth incubated for 3 days by MTT assay. To be noted: 72 h. It counts as functional, cell-based.
In a further test the test system is HeLa. In words: Cytotoxicity against human HeLa cells assessed as inhibition of cell growth incubated for 48 hrs by MTT assay. It counts as functional, cell-based.
The next test has as its system SK-MEL-5. Kind of test: Antiproliferative activity against human SK-MEL-5 cells assessed as inhibition of cell growth incubated for 96 hrs by SRB assay. It counts as functional, cell-based. The following applies: SK-MEL-5, 96 h.
The next test has as its system DU-145. In words: Cytotoxicity against human DU-145 cells assessed as reduction in cell growth incubated for 48 hrs by MTT assay. It counts as functional, cell-based. The following applies: DU-145, 48 h.
The test system of test [6] is MCF7. Kind of test: Cytotoxicity against human MCF7 cells assessed as reduction in cell growth incubated for 48 hrs by MTT assay. The format is functional, cell-based. To be noted: MCF7, 48 h.
Another test deals with T-24. Kind of test: Cytotoxicity against human T24 cells assessed as reduction in cell growth incubated for 48 hrs by MTT assay. It counts as functional, cell-based. The following applies: T-24, 48 h.
For the next test, the system named is HT-29. Kind of test: Antiproliferative activity against human HT-29 cells assessed as inhibition of cell growth incubated for 48 hrs by MTT assay. The format is functional, cell-based. The following applies: HT-29, 48 h.
The test system of another test is NCI-N87. In words: Antiproliferative activity against human NCI-N87 cells assessed as inhibition of cell growth incubated for 24 hrs by MTT reagent based microplate reader assay. It counts as functional. To be noted: NCI-N87, 24 h.
Test [7] in a line: Antiproliferative activity against human YCC-1 cells assessed as inhibition of cell growth incubated for 24 hrs by MTT reagent based microplate reader assay. The format is functional. The following applies: YCC-1, 24 h.
The nature of test [8]: Antiproliferative activity against human YCC-16 cells assessed as inhibition of cell growth incubated for 24 hrs by MTT reagent based microplate reader assay. The format is functional. To be noted: YCC-16, 24 h.
Test [9] can be described thus: Antiproliferative activity against human YCC-6 cells assessed as inhibition of cell growth incubated for 24 hrs by MTT reagent based microplate reader assay. The format is functional. The following applies: YCC-6, 24 h.
Test [10] in a line: Antiproliferative activity against human SNU-216 cells assessed as inhibition of cell growth incubated for 24 hrs by MTT reagent based microplate reader assay. The format is functional. The following applies: SNU-216, 24 h.
Test [11] in a line: Antiproliferative activity against human SNU-484 cells assessed as inhibition of cell growth incubated for 24 hrs by MTT reagent based microplate reader assay. It counts as functional. To be noted: SNU-484, 24 h.
In test [12] the test system is AGS. Kind of test: Antiproliferative activity against human AGS cells assessed as inhibition of cell growth incubated for 24 hrs by MTT reagent based microplate reader assay. The format is functional.
For another test, the system named is MKN-45. In words: Antiproliferative activity against human MKN-45 cells assessed as inhibition of cell growth incubated for 24 hrs by MTT reagent based microplate reader assay. To be noted: MKN-45, 24 h. It counts as functional.
The test system of another test is MKN-28. Kind of test: Antiproliferative activity against human MKN-28 cells assessed as inhibition of cell growth incubated for 24 hrs by MTT reagent based microplate reader assay. It counts as functional. To be noted: MKN-28, 24 h.

The IC50 is the concentration needed to halve the response being measured. For the compound `CCNC1=CC(=O)c2ccccc2C1=O`, the IC50 in the test with THP-1 was determined as 23000 nM; in the test with K562, 78000 nM.
As usually defined, the EC50 is the concentration that produces a half-maximal response. Lower therefore signals higher potency in that assay. In the test with MV4-11, `O=C(Cc1ccc(C(=O)NO)cc1)NC1=CC(=O)c2ccccc2C1=O` came in with an EC50 of 367 nM.
As to `O=C(NNC1=CC(=O)c2ccccc2C1=O)c1ccncc1`, the IC50 was 28200 nM with HCT-15 [1] and 20900 nM in the test with MCF7 [2].
Consider `O=C1c2ccccc2C(=O)c2oc(-c3ccccc3Cl)nc21`, for which the IC50 in the test with LNCaP was determined as 100 nM; with PC-3, 1260 nM.
On to `COc1ccc(C2C3=C(Nc4nc(SC)nc(N)c42)C(=O)c2ccccc2C3=O)cc1Br` (centres undefined), for which the IC50 in the test with SGC-7901 amounted to 4390 nM; with HepG2, 5910 nM.
Consider `O=C(/C=C/C=C/c1ccc2c(c1)OCO2)OC1=CC(=O)c2ccccc2C1=O`, for which the IC50 in the test on MCF7 [3] was found to be 3840 nM; in the test on NCI-H187 it was 2240 nM.
For the compound `C=CC(C)(C)C(SC(=O)c1cc(OC)c(OC)c(OC)c1)c1cc(OC)c2c(c1OC)/C(=N\O)C=C/C2=N\O` (centres undefined), the figures for the IC50 in the test with HCT-15 [4] and with HCT-116 were 3670 nM and 4950 nM, respectively.
With `Cn1c(=O)c2c3c(c(-c4cccs4)nc2n(C)c1=O)C(=O)c1ccccc1C3=O`, the IC50 with AGS [5] is 3300 nM.
With `CC(C)(C)SC1=C(Cl)C(=O)c2ccccc2C1=O`, the IC50 in the test on HeLa is 10200 nM.
`C=CC/N=c1\sc2c(n1NC(=O)c1cc3ccc1CCc1ccc(cc1)CC3)C(=O)c1ccccc1C2=O`: the IC50 in the test with SK-MEL-5 turned out to be 810 nM.
As for `COc1cc(NC2=C(C(=O)c3ccccc3)C(=O)c3ccccc3C2=O)cc(OC)c1OC`, the IC50 worked out at 8120 nM with DU-145, 7530 nM with MCF7 [6] and 11600 nM in the test on T-24.
Consider `O=C(c1cccs1)c1cc2c(s1)C(=O)c1ccccc1C2=O`, for which the IC50 in the test on HT-29 was 1730 nM.
In the case of `COc1ccc(SC2=CC(=O)c3c(OC)ccc(OC)c3C2=O)cc1`, the IC50 in the test with NCI-N87 worked out at 730 nM; in [7] it was 710 nM; in test [8] it was 1350 nM; in test [9] it was 420 nM; in [10], 1220 nM; in [11] it was 640 nM. Also, the values for the IC50 with AGS [12], with MKN-45 and in the test on MKN-28 were 320 nM, 630 nM and 560 nM, respectively.
